Measured values taken from patent US20240216410A1, “METHODS AND COMPOSITIONS FOR TREATING CANCER THERAPY-INDUCED NEUTROPENIC FEVER AND/OR GVHD” (BOARD OF REGENTS, THE UNIVERSITY OF TEXAS SYSTEM, priority 2021, published 2024).
Entries after “also recorded” stand apart in the source; their conditions may differ.

Key:
intestinal microbiota = assay: Murine GVHD model: fecal microbiome composition (16S rRNA sequencing) and bacterial density (qPCR); assay type: in vivo, mice
Procedure: Effects of meropenem treatment on the composition of the intestinal microbiota of allo-HSCT mice were also examined (FIG. 15F).
Sequencing of 16S rRNA gene amplicons. Fecal samples from patients and mice were weighed before DNA isolation. In brief, genomic DNA was isolated using the QIAAMP® DNA mini kit (51306, QIAGEN®) according to the manufacturer's protocol that was modified to include an intensive bead-beating lysis step. The V4 region of 16S rRNA gene was amplified by PCR from 100 ng of each of extracted and purified genomic DNA using 515 forward and 806 reverse primer pairs (59). The quality and quantity of the barcoded amplicons were assessed on an Agilent 4200 TapeStation system (Agilent) and QUBIT™ Fluorometer (THERMO FISHER […]™), and libraries were prepared after pooling at equimolar ratios. The final libraries were purified using […]® gel extraction kit (28706X4, QIAGEN®) and sequenced with a 2×250 base pair paired-end protocol on the […]® MISEQ™ platform.
Microbiome data analysis. Sequencing data from paired-end reads were de-multiplexed using QIIME 2 (60). Merging of paired-end reads, dereplicating, and length filtering was performed using VSEARCH 2.17.1 (61). Following de-noising and chimera calling using the unoise3 command (62), unique sequences were taxonomically classified with mothur (63) using the Silva database (64) version 138. Weighted UniFrac distances (65) were determined using QIIME 2, visualized using principal coordinate analysis, and evaluated for statistical significance using permutational multivariate analysis of variance (PERMANOVA) testing. For differential abundance analysis, abundances of sequences belonging to taxonomical groups were included for analysis using the Mann-Whitney U test and adjusted for multiple comparisons using the method of Benjamini and Hochberg. Paired samples were analyzed using the Wilcoxon signed rank test with adjustment for multiple comparisons.
Quantification of fecal bacterial density. Genomic DNA was isolated from stool as described above. qPCR was performed as previously described (66). In brief, 16S rRNA gene sequences were amplified from total fecal DNA using the primers 926F (5′-[…]-3′, where K is a G or a T; SEQ ID NO:2) and 1062R (5′-[…]-3′, where R is an A or a G; SEQ ID NO:3). Real-time PCR were carried out in 96-well optical plates on QUANTSTUDIO™ Flex 6 RT PCR (APPLIED BIOSYSTEMS™) and KAPA SYBR® FAST Master Mix (Roche). The PCR conditions included one initial denaturing step of 10 min at 95° C. and 40 cycles of 95° C. for 20 sec and 60 °C for 1 min. Melting-curve analysis was performed after amplification. To determined bacterial density, a plasmid with a 16S rRNA gene of a murine Blautia isolate was generated in the pCR4 backbone and used as a standard.

[1] = system: Clostridium disporicum (MDA-JAX CD001); assay: MIC of meropenem by MIC test strips; assay type: cell-based; conditions: mouse-derived
Procedure: (§1) The minimum inhibitory concentration (MIC) of meropenem against murine BT was quantified using MIC test strips (Table 4).
(§2) Culturing of bacteria. Mouse-derived BT (MDA-JAX BT001), Enterococcus faecalis (MDA-JAX EF001) and Clostridium disporicum (MDA-JAX CD001), Clostridium saudiense (MDA-JAX CS001), and Lachnospiraceae unclassified (MDA-JAX LS001) were isolated and cultured from mouse stool samples suspended in 1 ml of chilled 20% anaerobic glycerol in a Whitley anaerobic chamber (10% H2, 5% CO2 and 85% N2). Human-derived BT (ATCC 29148) was purchased from ATCC. Bacterial number was quantified using a Nexcelom Cellometer cell counter with SYTO™ BC dye and propidium iodide. For measuring MICs against meropenem, bacteria were cultured on BYE plates including 5% sterilized rumen fluid (Fisher Scientific) with MIC test strips (LIOFILCHEM™ MTS™ Meropenem [MRP] 0.016-256 μg/mL, THERMO FISHER […]™)). Bacterial growth experiments were in liquid media were performed in a novel bacterial media, BYEM10, composed of a hybrid of BHI and M10 supplemented with yeast extract (Table 5).

[2] = system: Bacteroides thetaiotaomicron (MDA-JAX BT001); assay: MIC of meropenem by MIC test strips; assay type: cell-based; conditions: mouse-derived BT
Procedure: as §1, §2

[3] = system: Enterococcus faecalis (MDA-JAX EF001); assay: MIC of meropenem by MIC test strips; assay type: cell-based; conditions: mouse-derived
Procedure: as §1, §2

[4] = system: Clostridium saudiense (MDA-JAX CS001); assay: MIC of meropenem by MIC test strips; assay type: cell-based; conditions: mouse-derived
Procedure: as §1, §2

[5] = Murine GVHD model: fecal SCFAs by IC-MS; assay type: in vivo; conditions: day 18; meropenem-treated allo-HSCT mice
Description: In some cases, meropenem-induced intestinal dysbiosis contributes to aggravated GVHD via loss of beneficial commensal bacteria. In some embodiments, meropenem-treated allogeneic mice show a loss of Clostridia abundance and a reduction in SCFA levels, including butyrate. On day 7, or 4 days following the start of meropenem treatment, Clostridia were depleted in meropenem-treated mice and remained so at 6 days after stopping 5 meropenem (FIG. 20A).
Short Chain Fatty Acids profiling by ion chromatography-mass spectrometry (IC-MS). To determine the relative abundance of short chain fatty acids in mouse feces samples, extracts were prepared and analyzed by ultra-high resolution mass spectrometry (HRMS). Fecal pellets were homogenized with a […]® Tissue Homogenizer. Metabolites were extracted using 1 mL ice-cold 0.1% Ammonium hydroxide in 80/20 (v/v) methanol/water. Extracts were centrifuged at 17,000 g for 5 min at 4° C., and supernatants were transferred to clean tubes, followed by evaporation to dryness under nitrogen. Dried extracts were reconstituted in deionized water, and 5 μL was injected for analysis by IC-MS. IC mobile phase A (MPA; weak) was water, and mobile phase B (MPB; strong) was water containing 100 mM KOH. A THERMO […]™ DIONEX™ ICS-5000+ system included a THERMO FISHER […]™ IONPAC™ AS11 column ([…], 250×2 mm) with column compartment kept at 30° C. […]

C[C@@H](O)[C@H]1C(=O)N2C(C(=O)O)=C(S[C@@H]3CN[C@H](C(=O)N(C)C)C3)[C@H](C)[C@H]12 [meropenem]
abundance of murine BT (intestinal microbiota; allo-HSCT mice, days 0, 7, 14, 21): suppressed by meropenem-supplemented drinking water but quickly expanded after cessation of meropenem therapy; also recorded: higher abundances of BT
abundance of Clostridia (intestinal microbiota; allogeneic mice, days 0, 7, 14, 21): significantly decreased; also recorded: depleted
fecal bacterial density (intestinal microbiota; day 14 after allo-HSCT, during meropenem treatment): significantly decreased bacterial density
fecal bacterial density (intestinal microbiota; day 21, 6 days after stopping meropenem): recovered to a level similar to that of untreated syngeneic and allogeneic mice
alpha diversity (inverse Simpson index) (intestinal microbiota; fecal samples day 21): significantly reduced
bacterial genera depleted (intestinal microbiota; fecal samples day 21): many genera were depleted, including Blautia, Lachnoclostridium, and other members of Lachnospiraceae
bacterial genera with increased abundance (intestinal microbiota; fecal samples day 21): significantly higher abundances of bacteria from several genera, including most substantially Bacteroides, as well as Enterococcus, Erysipelatoclostridium, Bifidobacterium and Akkermansia
MIC [1]: 0.094 µg/mL
MIC [2]: 4 µg/mL
MIC [3]: 12 µg/mL
MIC [4]: 0.38 µg/mL
fecal levels of SCFAs [5]: significantly decreased; also recorded: reduced fecal levels of SCFAs, with particularly dramatic reductions in butyrate and valerate
